# Results taken from PubChem BioAssay AID250 (DTP/NCI, 2004).
# Several values for one entry are separate records, joined by “and”; a condition that tells them apart may be missing. Identical values can stand only once. Toxic doses and inconclusive results are not listed.
# System: BDF1 mice, L1210 leukemia sc, survival T/C
# Assay: NCI In Vivo Anticancer Drug Screen. Data for tumor model L1210 Leukemia (subcutaneous) in B6D2F1 (BDF1) mice
# Conditions: higher = longer survival
# Description: The antitumor activity of compounds was measured in mice bearing transplantable tumors. Survival or tumor size were measured and the results are expressed as the measurement made in the treated group (T) divided by the measurement made in the vehicle treated control group (C). The tumor model used in this assay is L1210 Leukemia (subcutaneous) in B6D2F1 (BDF1) mice
# [1] = endpoint: median survival time, dose: 65.0 mg/kg/injection, schedule: Q01DX Z (sc), vehicle: carboxymethylcellulose (CMC)
# [2] = endpoint: median survival time, dose: 300.0 mg/kg/injection, schedule: Q01DX Z (sc), vehicle: methylcellulose (MC)
# [3] = endpoint: median survival time, dose: 500.0 mg/kg/injection, schedule: Q01DX Z (sc), vehicle: methylcellulose (MC)
# [4] = endpoint: median survival time, dose: 108.0 mg/kg/injection, schedule: Q01DX Z (sc), vehicle: methylcellulose (MC)
smiles,measurement,setting,value
CCNc1nncs1,T/C,"endpoint: median survival time, dose: 65.0 mg/kg/injection, schedule: Q01DX Z (sc), vehicle: other",120 % of control
same,T/C,"endpoint: median survival time, dose: 180.0 mg/kg/injection, schedule: Q01DX Z (sc), vehicle: other",150 % of control
same,T/C,"endpoint: median survival time, dose: 300.0 mg/kg/injection, schedule: Q01DX Z (sc), vehicle: other",175 % of control
Cc1c(O)ccc(=O)n1O,T/C,[1],100 % of control
same,T/C,"endpoint: median survival time, dose: 108.0 mg/kg/injection, schedule: Q01DX Z (sc), vehicle: carboxymethylcellulose (CMC)",100 % of control
same,T/C,"endpoint: median survival time, dose: 180.0 mg/kg/injection, schedule: Q01DX Z (sc), vehicle: carboxymethylcellulose (CMC)",100 % of control
same,T/C,"endpoint: median survival time, dose: 300.0 mg/kg/injection, schedule: Q01DX Z (sc), vehicle: carboxymethylcellulose (CMC)",100 % of control
same,T/C,"endpoint: median survival time, dose: 500.0 mg/kg/injection, schedule: Q01DX Z (sc), vehicle: carboxymethylcellulose (CMC)",100 % of control
Nc1ccc(O)cc1,T/C,"endpoint: median survival time, dose: 130.0 mg/kg/injection, schedule: Q01DX Z (sc), vehicle: other",95 % of control
same,T/C,"endpoint: median survival time, dose: 216.0 mg/kg/injection, schedule: Q01DX Z (sc), vehicle: other",116 % of control
same,T/C,[2],112 % of control
same,T/C,[3],112 % of control
same,T/C,"endpoint: median survival time, dose: 600.0 mg/kg/injection, schedule: Q01DX Z (sc), vehicle: other",87 % of control
CNNCc1ccc(C(=O)NC(C)C)cc1,T/C,"endpoint: median survival time, dose: 65.0 mg/kg/injection, schedule: Q01DX009 (sc), vehicle: saline",116 % of control and 122 % of control
same,T/C,"endpoint: median survival time, dose: 65.0 mg/kg/injection, schedule: Q01DX014 (sc), vehicle: saline",119 % of control and 122 % of control
same,T/C,"endpoint: median survival time, dose: 65.0 mg/kg/injection, schedule: Q01DX015 (sc), vehicle: saline",122 % of control
same,T/C,"endpoint: median survival time, dose: 108.0 mg/kg/injection, schedule: Q01DX014 (sc), vehicle: saline",111 % of control
same,T/C,"endpoint: median survival time, dose: 108.0 mg/kg/injection, schedule: Q01DX015 (sc), vehicle: saline",122 % of control and 123 % of control
same,T/C,"endpoint: median survival time, dose: 180.0 mg/kg/injection, schedule: Q01DX015 (sc), vehicle: saline",150 % of control
same,T/C,"endpoint: median survival time, dose: 300.0 mg/kg/injection, schedule: Q01DX015 (sc), vehicle: saline",163 % of control and 166 % of control
same,T/C,"endpoint: median survival time, dose: 500.0 mg/kg/injection, schedule: Q01DX014 (sc), vehicle: saline",122 % of control
same,T/C,"endpoint: median survival time, dose: 500.0 mg/kg/injection, schedule: Q01DX015 (sc), vehicle: saline",116 % of control and 117 % of control
COC(=O)c1[nH]c(=O)[nH]c(=O)c1F,T/C,"endpoint: median survival time, dose: 5.0 mg/kg/injection, schedule: Q01DX Z (sc), vehicle: methylcellulose (MC)",111 % of control
same,T/C,"endpoint: median survival time, dose: 10.0 mg/kg/injection, schedule: Q01DX Z (sc), vehicle: methylcellulose (MC)",158 % of control
same,T/C,"endpoint: median survival time, dose: 20.0 mg/kg/injection, schedule: Q01DX Z (sc), vehicle: methylcellulose (MC)",164 % of control
same,T/C,"endpoint: median survival time, dose: 40.0 mg/kg/injection, schedule: Q01DX Z (sc), vehicle: methylcellulose (MC)",158 % of control
same,T/C,"endpoint: median survival time, dose: 80.0 mg/kg/injection, schedule: Q01DX Z (sc), vehicle: methylcellulose (MC)",152 % of control
O=c1[nH]cnc2[nH]ncc12,T/C,"endpoint: mean survival time, dose: 20.0 mg/kg/injection, schedule: Q01DX001 (ip), vehicle: saline",97 % of control
same,T/C,"endpoint: mean survival time, dose: 30.0 mg/kg/injection, schedule: Q01DX001 (ip), vehicle: saline",101 % of control
same,T/C,"endpoint: mean survival time, dose: 40.0 mg/kg/injection, schedule: Q01DX001 (ip), vehicle: saline",98 % of control
same,T/C,"endpoint: mean survival time, dose: 80.0 mg/kg/injection, schedule: Q01DX001 (ip), vehicle: saline",98 % of control
same,T/C,"endpoint: median survival time, dose: 10.0 mg/kg/injection, schedule: Q01DX009 (ip), vehicle: saline",99 % of control (2×) and 100 % of control
same,T/C,"endpoint: median survival time, dose: 20.0 mg/kg/injection, schedule: Q01DX001 (ip), vehicle: saline",90 % of control
same,T/C,"endpoint: median survival time, dose: 20.0 mg/kg/injection, schedule: Q01DX009 (ip), vehicle: saline",100 % of control and 101 % of control (2×)
same,T/C,"endpoint: median survival time, dose: 30.0 mg/kg/injection, schedule: Q01DX001 (ip), vehicle: saline",100 % of control
same,T/C,"endpoint: median survival time, dose: 40.0 mg/kg/injection, schedule: Q01DX001 (ip), vehicle: saline",100 % of control
same,T/C,"endpoint: median survival time, dose: 40.0 mg/kg/injection, schedule: Q01DX009 (ip), vehicle: saline",99 % of control (2×) and 100 % of control
same,T/C,"endpoint: median survival time, dose: 80.0 mg/kg/injection, schedule: Q01DX001 (ip), vehicle: saline",100 % of control
CCCNc1ncnc2[nH]ncc12,T/C,"endpoint: median survival time, dose: 64.8 mg/kg/injection, schedule: Q01DX Z (sc), vehicle: methylcellulose (MC)",120 % of control
same,T/C,[4],110 % of control
same,T/C,"endpoint: median survival time, dose: 180.0 mg/kg/injection, schedule: Q01DX Z (sc), vehicle: methylcellulose (MC)",100 % of control
same,T/C,[2],100 % of control
same,T/C,[3],100 % of control
O=NN(CCCl)C(=O)N[C@H]1CCCC[C@@H]1Cl,T/C,"endpoint: median survival time, dose: 3.0 mg/kg/injection, schedule: Q01DX Z (sc), vehicle: carboxymethylcellulose (CMC)",111 % of control
same,T/C,"endpoint: median survival time, dose: 5.0 mg/kg/injection, schedule: Q01DX Z (sc), vehicle: carboxymethylcellulose (CMC)",111 % of control
same,T/C,"endpoint: median survival time, dose: 8.4 mg/kg/injection, schedule: Q01DX Z (sc), vehicle: carboxymethylcellulose (CMC)",211 % of control
same,T/C,"endpoint: median survival time, dose: 11.3 mg/kg/injection, schedule: Q01DX Z (sc), vehicle: carboxymethylcellulose (CMC)",668 % of control
same,T/C,"endpoint: median survival time, dose: 14.0 mg/kg/injection, schedule: Q01DX Z (sc), vehicle: carboxymethylcellulose (CMC)",336 % of control and 472 % of control
same,T/C,"endpoint: median survival time, dose: 22.5 mg/kg/injection, schedule: Q01DX Z (sc), vehicle: carboxymethylcellulose (CMC)",493 % of control
same,T/C,"endpoint: median survival time, dose: 23.0 mg/kg/injection, schedule: Q01DX Z (oral), vehicle: carboxymethylcellulose (CMC)",326 % of control
same,T/C,"endpoint: median survival time, dose: 23.0 mg/kg/injection, schedule: Q01DX Z (sc), vehicle: carboxymethylcellulose (CMC)",272 % of control and 336 % of control
same,T/C,"endpoint: median survival time, dose: 39.0 mg/kg/injection, schedule: Q01DX Z (oral), vehicle: carboxymethylcellulose (CMC)",189 % of control
same,T/C,"endpoint: median survival time, dose: 39.0 mg/kg/injection, schedule: Q01DX Z (sc), vehicle: carboxymethylcellulose (CMC)",278 % of control
same,T/C,"endpoint: median survival time, dose: 45.0 mg/kg/injection, schedule: Q01DX Z (sc), vehicle: carboxymethylcellulose (CMC)",300 % of control
same,T/C,"endpoint: median survival time, dose: 65.0 mg/kg/injection, schedule: Q01DX Z (oral), vehicle: carboxymethylcellulose (CMC)",163 % of control
same,T/C,[1],194 % of control
same,T/C,"endpoint: median survival time, dose: 90.0 mg/kg/injection, schedule: Q01DX Z (sc), vehicle: carboxymethylcellulose (CMC)",150 % of control
same,T/C,"endpoint: median survival time, dose: 180.0 mg/kg/injection, schedule: Q01DX Z (oral), vehicle: carboxymethylcellulose (CMC)",115 % of control
same,T/C,"endpoint: median survival time, dose: 300.0 mg/kg/injection, schedule: Q01DX Z (oral), vehicle: carboxymethylcellulose (CMC)",105 % of control
COS(C)(=O)=O,T/C,"endpoint: median survival time, dose: 23.0 mg/kg/injection, schedule: Q01DX Z (sc), vehicle: water",100 % of control
same,T/C,"endpoint: median survival time, dose: 39.0 mg/kg/injection, schedule: Q01DX Z (sc), vehicle: water",94 % of control
same,T/C,"endpoint: median survival time, dose: 65.0 mg/kg/injection, schedule: Q01DX Z (sc), vehicle: water",100 % of control
CCN(CC)P(=O)(N1CC1)N1CC1,T/C,"endpoint: median survival time, dose: 1.08 mg/kg/injection, schedule: Q01DX Z (sc), vehicle: saline",100 % of control
same,T/C,"endpoint: median survival time, dose: 1.8 mg/kg/injection, schedule: Q01DX Z (sc), vehicle: saline",100 % of control
same,T/C,"endpoint: median survival time, dose: 3.0 mg/kg/injection, schedule: Q01DX Z (sc), vehicle: saline",110 % of control
same,T/C,"endpoint: median survival time, dose: 5.0 mg/kg/injection, schedule: Q01DX Z (sc), vehicle: saline",115 % of control
same,T/C,"endpoint: median survival time, dose: 8.4 mg/kg/injection, schedule: Q01DX Z (sc), vehicle: saline",170 % of control and 194 % of control
same,T/C,"endpoint: median survival time, dose: 14.0 mg/kg/injection, schedule: Q01DX Z (sc), vehicle: saline",150 % of control and 183 % of control
same,T/C,"endpoint: median survival time, dose: 23.0 mg/kg/injection, schedule: Q01DX Z (sc), vehicle: saline",155 % of control
same,T/C,"endpoint: median survival time, dose: 39.0 mg/kg/injection, schedule: Q01DX Z (sc), vehicle: saline",111 % of control
same,T/C,"endpoint: median survival time, dose: 65.0 mg/kg/injection, schedule: Q01DX Z (sc), vehicle: saline",111 % of control
same,T/C,"endpoint: median survival time, dose: 108.0 mg/kg/injection, schedule: Q01DX Z (sc), vehicle: saline",100 % of control
NS(=O)(=O)c1ncnc2nc[nH]c12,T/C,"endpoint: median survival time, dose: 65.0 mg/kg/injection, schedule: Q01DX Z (sc), vehicle: methylcellulose (MC)",100 % of control
same,T/C,[4],105 % of control
